Results taken from patent US20120070421A1 (priority 2009, published 2012).
Read-outs that look alike come from different tables or passages of the source.

What was measured:
Pyricularia oryzae = format: cell-based; details: single active, 7 days after inoculation
Plasmopara viticola = assay: Green house: fungicidal control of grape downy mildew, protective spray on grape cuttings; format: in vivo; details: single active, grape plants, sprayed 1 day before inoculation
Method: The stock solution were prepared: a mixture of acetone and/or dimethylsulfoxide and the wetting agent/emulsifier Wettol, which is based on ethoxylated alkylphenoles, in a relation (volume) solvent-emulsifier of 99 to 1 was added to 25 mg of the compound to give a total of 10 ml. Water was then added to total volume of 100 ml. This stock solution was diluted with the described solvent-emulsifier-water mixture to the given concentration.
The visually determined percentages of infected leaf areas are converted into efficacies in % of the untreated control.
The efficacy (E) is calculated as follows using Abbot's formula: […]
α corresponds to the fungicidal infection of the treated plants in % and β corresponds to the fungicidal infection of the untreated (control) plants in %
An efficacy of 0 means that the infection level of the treated plants corresponds to that of the untreated control plants; an efficacy of 100 means that the treated plants were not infected.
The expected efficacies of active compound combinations were determined using Colby's formula (Colby, S. R. “Calculating synergistic and antagonistic responses of herbicide combinations”, Weeds, 15, pp. 20-22, 1967) and compared with the observed efficacies.
Colby's formula: E=x+y−x·y/100
E expected efficacy, expressed in % of the untreated control, when using the mixture of the active compounds A and B at the concentrations a and b x efficacy, expressed in % of the untreated control, when using the active compound A at the concentration a y efficacy, expressed in % of the untreated control, when using the active compound B at the concentration b.
Grape cuttings were grown in pots to the 4 to 5 leaf stage. These plants were sprayed to run-off with an aqueous suspension, containing the concentration of active ingredient or their mixture mentioned in the table below. The plants were allowed to air-dry. […] Then the extent of fungal attack on the lower leaf surface was visually assessed as % diseased leaf area.

Phytophthora infestans = format: cell-based; details: 0.00025 ppm, single active, 7 days after inoculation

Work on `CCCCCCCCc1c(CC)nc2ncnn2c1N` [drawing 13, reference compound] yielded an Observed efficacy (Pyricularia oryzae; 4 ppm) of 10%.

For `Cn1cc(C(=O)Nc2ccccc2-c2cc(F)c(F)c(F)c2)c(C(F)F)n1`, the Observed efficacy (Plasmopara viticola; 0.016 ppm) was 0%.

Molecule `Cc1cc(C(F)(F)F)nn1CC(=O)N1CCC(c2nc(C(=O)N(C)[C@@H]3CCCc4ccccc43)cs2)CC1` [2-{1-[2-(5-methyl-3-trifluoromethyl-pyrazol-1-yl)-acetyl]-piperid-4-yl}-thiazole-4-carboxylic acid methyl-(R)-1,2,3,4-tetrahydro-naphthalen-1-yl-amide] has an Observed efficacy (Pyricularia oryzae; 0.063 ppm) of 1%, an Observed efficacy (Pyricularia oryzae; 63 ppm) of 28% and an Observed efficacy (Plasmopara viticola; 0.063 ppm) of 67%. For the same molecule, the Observed efficacy (Phytophthora infestans) was 0%.

`CCCCCCCCc1c(CC)nc2ncnn2c1N` [drawing 4] was tested, and the Observed efficacy (Plasmopara viticola; 0.016 ppm) was 11%.
